According to the supplement of paper PMC10307832:

Compound: CN1CCN(CC1)C2=CC(=C(C=C2)NC3=NC=C4C(=N3)N(C5=CC=CC=C5C(=O)N4C)C)OC [XMD8-85]
Assay: relative viability (nuclei count vs DMSO), 5 days (fraction); higher = more cells survive
Conditions: 0.08 µM
Procedure, shortened: (§1)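 On vehicle-anchored 1536-well plates, lung cancer cell lines held overnight at 37 °C were pinned with five library-drug doses (not always all listed) spaced by √10. With no medium change over 5 days, they were then fixed, permeabilised and Hoechst-stained in one step and imaged at 4×. MetaXpress counted nuclei, and viability is the median across plates of treated-well over vehicle-well nuclei. Acceptance needed control CV below 25% and at least one doubling.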

Cell Line | relative viability
NCI-H2126 | 0.96
NCI-H2170 | 1.03
NCI-H2228 | 0.894
NCI-H2347 | 1.03
NCI-H2405 | 1.02
NCI-H3122 | 1.09
PC-3 [JPC-3] | 1.06
PC-14 | 0.996
RERF-LC-KJ | 0.992
SK-LU-1 | 0.921
SK-MES-1 | 1.03
SW 1573 | 1.02
UMC-11 | 1.03

Same assay, conditions: 0.253 µM

Cell Line | relative viability
NCI-H2126 | 1.02
NCI-H2170 | 1.09
NCI-H2228 | 1.06
NCI-H2347 | 0.973
NCI-H2405 | 1.06
NCI-H3122 | 0.965
PC-3 [JPC-3] | 1.03
PC-14 | 0.906
RERF-LC-KJ | 0.939
SK-LU-1 | 1.07
SK-MES-1 | 1.03
SW 1573 | 1.1
UMC-11 | 0.982

Same assay, conditions: 0.8 µM

Cell Line | relative viability
NCI-H2126 | 1.03
NCI-H2170 | 1.01
NCI-H2228 | 1
NCI-H2347 | 1.04
NCI-H2405 | 1.06
NCI-H3122 | 1.08
PC-3 [JPC-3] | 0.993
PC-14 | 0.984
RERF-LC-KJ | 1.07
SK-LU-1 | 1.08
SK-MES-1 | 0.938
SW 1573 | 1.08
UMC-11 | 1.11

Same assay, conditions: 2.53 µM

Cell Line | relative viability
NCI-H2126 | 1.11
NCI-H2170 | 1.12
NCI-H2228 | 0.995
NCI-H2347 | 1.03
NCI-H2405 | 1.01
NCI-H3122 | 0.972
PC-3 [JPC-3] | 1.11
PC-14 | 1.03
RERF-LC-KJ | 1.13
SK-LU-1 | 1.06
SK-MES-1 | 0.951
SW 1573 | 0.982
UMC-11 | 0.964

Same assay, conditions: 8 µM

Cell Line | relative viability
NCI-H2126 | 0.821
NCI-H2170 | 0.993
NCI-H2228 | 0.604
NCI-H2347 | 0.809
NCI-H2405 | 0.781
NCI-H3122 | 0.967
PC-3 [JPC-3] | 0.942
PC-14 | 0.587
RERF-LC-KJ | 0.82
SK-LU-1 | 0.96
SK-MES-1 | 0.556
UMC-11 | 0.739

Compound: O=C(O)C(Cc1ccccc1[N+](=O)[O-])=NNc1nc(-c2ccc(Cl)c(Cl)c2)cs1 (mixture of isomers) [4EGI-1]
Assay: as above
Conditions: 0.5 µM
Procedure, shortened: as §1

Cell Line | relative viability
NCI-H2126 | 1.05
NCI-H2170 | 0.986
NCI-H2228 | 1.26
NCI-H2347 | 1.14
NCI-H2405 | 1.04
NCI-H3122 | 0.987
PC-3 [JPC-3] | 1.01
PC-14 | 1.01
RERF-LC-KJ | 1.1
SK-LU-1 | 1.12
SK-MES-1 | 1.09
SW 1573 | 1.24
UMC-11 | 1.13

Same assay, conditions: 1.581 µM

Cell Line | relative viability
NCI-H2126 | 0.937
NCI-H2170 | 0.942
NCI-H2228 | 1.25
NCI-H2347 | 0.965
NCI-H2405 | 0.819
NCI-H3122 | 0.918
PC-3 [JPC-3] | 0.991
RERF-LC-KJ | 0.629
SK-LU-1 | 1.11
SK-MES-1 | 0.944
SW 1573 | 0.862
UMC-11 | 1.11

Same assay, conditions: 5 µM

Cell Line | relative viability
NCI-H2126 | 1.05
NCI-H2170 | 0.992
NCI-H2228 | 0.939
NCI-H2347 | 1.02
NCI-H2405 | 1.08
NCI-H3122 | 0.969
PC-3 [JPC-3] | 1
PC-14 | 1.05
RERF-LC-KJ | 0.936
SK-LU-1 | 1.14
SK-MES-1 | 0.983
SW 1573 | 1.03
UMC-11 | 1.01

Same assay, conditions: 15.81 µM

Cell Line | relative viability
NCI-H2126 | 0.837
NCI-H2170 | 0.853
NCI-H2228 | 0.951
NCI-H2347 | 1.03
NCI-H2405 | 1.03
NCI-H3122 | 0.964
PC-14 | 0.341
RERF-LC-KJ | 0.805
SK-LU-1 | 0.998
SK-MES-1 | 0.759
SW 1573 | 0.673
UMC-11 | 0.986

Same assay, conditions: 50 µM

Cell Line | relative viability
NCI-H2126 | 0.79
NCI-H2170 | 0.606
NCI-H2228 | 0.294
NCI-H2347 | 0.823
NCI-H2405 | 0.984
NCI-H3122 | 0.683
PC-3 [JPC-3] | 0.691
PC-14 | 0.395
RERF-LC-KJ | 0.637
SK-LU-1 | 0.58
SK-MES-1 | 0.691
SW 1573 | 0.445
UMC-11 | 0.403
